Data: the supplement of paper PMC4862054

Legend:
Details in all cases: incubation time: 72 h
[1] = tested on: BT-474; experiment: normalised response (% of control), CellTox Green; higher = less cell death (100 = DMSO, 0 = benzethonium chloride kill control)
Method in brief: (§1)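 Values are normalised signals, each belonging to one concentration of the series. Breast cancer cells (20 µl suspension) were seeded into 384-well plates with compound at 5 concentrations in 10-fold steps over a compound-specific 10,000-fold range and incubated 72 h. Readouts were CellTox Green fluorescence (485/520 nm), then CellTiter-Glo luminescence after 10 min at room temperature, with each plate set to 0.1 % DMSO as 100 and a positive kill control as 0.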

[2] = tested on: BT-549; experiment: as above
Method in brief: as §1

[3] = tested on: CAL-120; experiment: as above
Method in brief: as §1

[4] = tested on: CAL-51; experiment: as above
Method in brief: as §1

[5] = tested on: CAL-85-1; experiment: as above
Method in brief: as §1

[6] = tested on: DU-4475; experiment: as above
Method in brief: as §1

[7] = tested on: HCC1143; experiment: as above
Method in brief: as §1

[8] = tested on: HCC1599; experiment: as above
Method in brief: as §1

[9] = tested on: HCC1937; experiment: as above
Method in brief: as §1

[10] = tested on: Hs578T; experiment: as above
Method in brief: as §1

[11] = tested on: MCF-10A; experiment: as above
Method in brief: as §1

[12] = tested on: MDA-MB-231; experiment: as above
Method in brief: as §1

[13] = tested on: MDA-MB-436; experiment: as above
Method in brief: as §1

[14] = tested on: MDA-MB-453; experiment: as above
Method in brief: as §1

[15] = tested on: MDA-MB-468; experiment: as above
Method in brief: as §1

[16] = tested on: MFM-223; experiment: as above
Method in brief: as §1

[17] = tested on: BT-474; experiment: normalised response (% of control), CellTiter-Glo; higher = more viable cells (100 = DMSO, 0 = benzethonium chloride kill control)
Description: (§2)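 DSRT, 72 h incubation, CellTox Green / CellTiter-Glo readout. Signal is normalised to DMSO and benzethonium chloride controls. Value is the normalised response at dose 3.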

[18] = tested on: BT-549; experiment: as above
Description: as §2

[19] = tested on: CAL-120; experiment: as above
Description: as §2

[20] = tested on: CAL-148; experiment: as above
Description: as §2

[21] = tested on: CAL-51; experiment: as above
Description: as §2

[22] = tested on: CAL-85-1; experiment: as above
Description: as §2

[23] = tested on: DU-4475; experiment: as above
Description: as §2

[24] = tested on: HCC1143; experiment: as above
Description: as §2

[25] = tested on: HCC1599; experiment: as above
Description: as §2

[26] = tested on: HCC1937; experiment: as above
Description: as §2

[27] = tested on: HDQ-P1; experiment: as above
Description: as §2

[28] = tested on: Hs578T; experiment: as above
Description: as §2

[29] = tested on: MCF-10A; experiment: as above
Description: as §2

[30] = tested on: MDA-MB-231; experiment: as above
Description: as §2

[31] = tested on: MDA-MB-436; experiment: as above
Description: as §2

[32] = tested on: MDA-MB-453; experiment: as above
Description: as §2

[33] = tested on: MDA-MB-468; experiment: as above
Description: as §2

[34] = tested on: MFM-223; experiment: as above
Description: as §2

[35] = tested on: SK-BR-3; experiment: as above
Description: as §2

[36] = tested on: CAL-148; experiment: normalised response (% of control), CellTox Green; higher = less cell death (100 = DMSO, 0 = benzethonium chloride kill control)
Method in brief: as §1

[37] = tested on: HDQ-P1; experiment: as above
Method in brief: as §1

Compound | normalised response [1] [%] | normalised response [2] [%] | normalised response [3] [%] | normalised response [4] [%] | normalised response [5] [%] | normalised response [6] [%] | normalised response [7] [%] | normalised response [8] [%] | normalised response [9] [%] | normalised response [10] [%] | normalised response [11] [%] | normalised response [12] [%] | normalised response [13] [%] | normalised response [14] [%] | normalised response [15] [%] | normalised response [16] [%] | normalised response [17] [%] | normalised response [18] [%] | normalised response [19] [%] | normalised response [20] [%] | normalised response [21] [%] | normalised response [22] [%] | normalised response [23] [%] | normalised response [24] [%] | normalised response [25] [%] | normalised response [26] [%] | normalised response [27] [%] | normalised response [28] [%] | normalised response [29] [%] | normalised response [30] [%] | normalised response [31] [%] | normalised response [32] [%] | normalised response [33] [%] | normalised response [34] [%] | normalised response [35] [%] | normalised response [36] [%] | normalised response [37] [%]
CN(N=O)C(=O)N[C@@H](C=O)[C@@H](O)[C@H](O)[C@H](O)CO [Streptozocin] (100 nM) | 103 | 107 | 107 | 105 | 107 | 105 | 114 | 104 | 73.6 | 52.8 | 64.2 | 113 | 111 | 104 | 124 | 75.2 | 102 | 100 | 109 | 107 | 106 | 104 | 102 | 106 | 104 | 99.8 | 107 | 109 | 109 | 112 | 101 | 103 | 98.8 | 103 | 102 |  | 
Oc1nc(-c2ccc(C(F)(F)F)cc2)nc2c1CSCC2 [XAV-939] (100 nM) | 101 | 98.8 | 101 | 90.2 | 111 | 102 | 108 | 101 | 104 | 109 | 95.1 | 100 | 102 | 105 | 130 | 96.6 | 93.2 | 103 | 96.3 | 101 | 77.1 | 99.6 | 99.8 | 104 | 92.3 | 92.9 | 106 | 101 | 98.5 | 90.9 | 102 | 98.2 | 92 | 97 | 99.1 | 99.6 | 
COc1cc2nccc(Oc3ccc(NC(=O)C4(C(=O)Nc5ccc(F)cc5)CC4)cc3)c2cc1OC [Cabozantinib] (10 nM) | 95.6 | 107 | 98.1 | 102 | 96.5 | 99.5 | 104 | 91.5 | 102 | 69.2 | 85.1 |  | 96.2 | 101 | 62.5 | 100 | 93.9 | 102 | 98 | 110 | 111 | 103 | 100 | 99.2 | 113 | 94.6 | 93.5 | 99.3 | 97.2 | 99.3 | 105 | 100 | 97.8 | 99.4 | 94.3 | 76 | 
CC1(C)NC(=O)N(c2ccc([N+](=O)[O-])c(C(F)(F)F)c2)C1=O [Nilutamide] (100 nM) | 101 | 98.4 | 102 | 109 | 102 | 103 | 119 | 108 | 119 | 109 |  | 105 |  | 99.1 | 148 | 103 | 105 | 101 | 102 | 119 | 109 | 101 | 103 | 105 | 118 | 98.4 | 102 | 103 | 105 | 101 | 102 | 103 | 105 | 110 | 109 | 96.7 | 
O=P1(NCCCl)OCCCN1CCCl (stereo unspecified) [Ifosfamide] (100 nM) | 100 | 112 | 98 | 90.4 | 110 | 97.9 | 74.1 | 95.1 |  | 56.1 | 102 | 87.4 | 102 | 89.3 | 194 | 97.8 | 97 | 102 | 94.3 | 92 | 68.5 | 95.1 | 95.3 | 99.7 | 101 | 98.2 | 98.9 | 96.8 | 97.9 | 91.8 | 94.9 | 88.8 | 94.8 | 91.2 | 89.5 | 90.8 | 88
